# Patent US6602982B1, “Process for the preparation of regular glycopeptides” (Hokkaido Electric Power Company, Incorporated, priority 1998, dated 2003)
# Procedure: Aqueous solutions of the polymer of Example 5 having various concentrations were prepared, and the freezing point thereof was measured. The freezing point depression was measured with a light microscope with a temperature controller. Firstly, in order to remove any error in the measurement of freezing point due to supercooling, the whole system was previously frozen at −20° C., and then was carefully returned to 0° C. with attention not to dissolve completely the ice nucleus. Then, the system is gradually cooled with observing growth of ice crystal. The freezing point was deemed to be a point at which the growth of ice crystal was stopped and the whole system was frozen.
substance,measurement,setting,value
Olymer of L-Alanine-(β-D-galactopyranosyl)-(1→3)-(2-acetamido-2-deoxy-1-α-D-galactopyranosyl)-L-threonine-L-alanine [Example 5],growth of ice crystal,"aqueous solution, gradual cooling while observing ice crystal growth",inhibited the growth of ice crystal
same,freezing point depression activity,"aqueous solutions of various concentrations, compared with literature data for natural origin AFGP, FIG. 1",almost the same freezing point depression activity as that of the natural origin AFGP
